From ChEMBL document CHEMBL1201862, “PubChem BioAssay data set” (2004)
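A five-concentration, 48-hour dose response in 96-well plates underlies each endpoint, interpolated linearly between surrounding concentrations. GI50 marks 50% less growth.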 Calls of active or inactive are those of the source. Cut-off read from the data, not from the text of the source: active = GI50 up to about 1.1 µM and inactive = higher.

What was measured:
Test in all cases: DTP human tumour cell line panel, 48 h
[1] = system: HCC 2998
[2] = system: Malme-3M
[3] = system: NCI-H522
[4] = system: SF-268
[5] = system: XF498
[6] = system: DMS-114
[7] = system: SNB-78
[8] = system: ACHN
[9] = system: SNB-75
[10] = system: HCT-15
[11] = system: A549
[12] = system: U-251
[13] = system: CCRF-CEM
[14] = system: RXF 393
[15] = system: T47D
[16] = system: KM12
[17] = system: HOP-92
[18] = system: M14
[19] = system: OVCAR-8
[20] = system: UACC-62
[21] = system: NCI-H23
[22] = system: SK-OV-3
[23] = system: SK-MEL-2
[24] = system: OVCAR-5
[25] = system: EKVX
[26] = system: SN12C
[27] = system: SF-295
[28] = system: OVCAR-3
[29] = system: M19-MEL
[30] = system: 786-0
[31] = system: COLO 205
[32] = system: NCI-H226
[33] = system: SF-539
[34] = system: A498
[35] = system: K562
[36] = system: NCI-H460
[37] = system: SW-620
[38] = system: HT-29
[39] = system: HOP-18
[40] = system: UO-31
[41] = system: Hs-578T
[42] = system: DU-145
[43] = system: TK-10
[44] = system: NCI/ADR-RES
[45] = system: RPMI-8226
[46] = system: RXF 631
[47] = system: HL-60
[48] = system: KM-20L2
[49] = system: LXFL 529
[50] = system: MCF7
[51] = system: MDA-MB-435
[52] = system: DLD-1
[53] = system: OVCAR-4
[54] = system: SNB-19
[55] = system: SK-MEL-28
[56] = system: BT-549
[57] = system: MDA-N
[58] = system: UACC-257
[59] = system: SR
[60] = system: SK-MEL-5
[61] = system: PC-3
[62] = system: MDA-MB-231
[63] = system: MOLT-4
[64] = system: HCT-116
[65] = system: CAKI-1
[66] = system: LOX IMVI
[67] = system: IGROV-1
[68] = system: HOP-62
[69] = system: DMS-273

SMILES: CC(=O)OCC1OC(n2cc(F)c(=O)[nH]c2=O)C(OC(C)=O)C1OC(C)=O (stereo unspecified)
- GI50 [1]: 7.1 µM (inactive)
- GI50 [2]: 5.05 µM (inactive)
- GI50 [3]: 16.6 µM (inactive)
- GI50 [4]: 12.5 µM (inactive)
- GI50 [5]: 4.57 µM (inactive)
- GI50 [6]: 39.8 µM (inactive)
- GI50 [7]: > 100 µM (inactive)
- GI50 [8]: 12.9 µM (inactive)
- GI50 [9]: 23.6 µM (inactive)
- GI50 [10]: 13.7 µM
- GI50 [11]: 16.7 µM (inactive)
- GI50 [12]: 13.4 µM (inactive)
- GI50 [13]: 6 µM (inactive)
- GI50 [14]: 45.9 µM (inactive)
- GI50 [15]: 19.2 µM (inactive)
- GI50 [16]: 8.41 µM (inactive)
- GI50 [17]: 16.7 µM (inactive)
- GI50 [18]: 48.9 µM (inactive)
- GI50 [19]: 26 µM (inactive)
- GI50 [20]: 17.5 µM (inactive)
- GI50 [21]: 75.2 µM (inactive)
- GI50 [22]: > 73.5 µM (inactive)
- GI50 [23]: 28.2 µM (inactive)
- GI50 [24]: 33.8 µM (inactive)
- GI50 [25]: > 75.2 µM (inactive)
- GI50 [26]: 32.5 µM (inactive)
- GI50 [27]: 52.7 µM (inactive)
- GI50 [28]: 23.3 µM (inactive)
- GI50 [29]: 4.07 µM (inactive)
- GI50 [30]: 12.2 µM (inactive)
- GI50 [31]: 12.2 µM (inactive)
- GI50 [32]: 59.8 µM (inactive)
- GI50 [33]: 7.55 µM (inactive)
- GI50 [34]: 61.2 µM (inactive)
- GI50 [35]: 9.27 µM (inactive)
- GI50 [36]: 5.37 µM (inactive)
- GI50 [37]: 9.86 µM (inactive)
- GI50 [38]: 27.9 µM (inactive)
- GI50 [39]: 38 µM (inactive)
- GI50 [40]: 11.8 µM (inactive)
- GI50 [41]: > 59.3 µM (inactive)
- GI50 [42]: 70.5 µM (inactive)
- GI50 [43]: > 100 µM (inactive)
- GI50 [44]: 37.4 µM (inactive)
- GI50 [45]: 19.8 µM (inactive)
- GI50 [46]: 15.5 µM (inactive)
- GI50 [47]: 27.9 µM (inactive)
- GI50 [48]: 54.1 µM (inactive)
- GI50 [49]: 4.31 µM (inactive)
- GI50 [50]: 1.71 µM (inactive)
- GI50 [51]: 17 µM (inactive)
- GI50 [52]: 15.4 µM (inactive)
- GI50 [53]: 30.3 µM (inactive)
- GI50 [54]: 30.8 µM (inactive)
- GI50 [55]: 25.2 µM (inactive)
- GI50 [56]: 68.5 µM (inactive)
- GI50 [57]: 11.5 µM (inactive)
- GI50 [58]: 47.3 µM (inactive)
- GI50 [59]: 6.73 µM (inactive)
- GI50 [60]: 56 µM (inactive)
- GI50 [61]: 73.8 µM (inactive)
- GI50 [62]: 34.6 µM (inactive)
- GI50 [63]: 4.13 µM (inactive)
- GI50 [64]: 4.25 µM (inactive)
- GI50 [65]: 25.9 µM (inactive)
- GI50 [66]: 5.9 µM (inactive)
- GI50 [67]: 52.4 µM (inactive)
- GI50 [68]: 44 µM (inactive)

SMILES: O=C(O)COc1ccc(C(=O)/C(SS/C(C(=O)c2ccc(OCC(=O)O)c(Cl)c2Cl)=C2\C=C(c3ccccc3Cl)SS2)=C2/C=C(c3ccccc3Cl)SS2)c(Cl)c1Cl
- GI50 [1]: 57.1 µM (inactive)
- GI50 [2]: 53.8 µM (inactive)
- GI50 [69]: 25.6 µM (inactive)
- GI50 [3]: 3.27 µM (inactive)
- GI50 [4]: 22 µM (inactive)
- GI50 [5]: 13.6 µM (inactive)
- GI50 [6]: 9.73 µM (inactive)
- GI50 [7]: 16.9 µM (inactive)
- GI50 [8]: 23.5 µM (inactive)
- GI50 [9]: 35.1 µM (inactive)
- GI50 [10]: 21.7 µM
- GI50 [11]: 46.8 µM (inactive)
- GI50 [12]: 6.61 µM (inactive)
- GI50 [13]: 13 µM (inactive)
- GI50 [16]: 31.2 µM (inactive)
- GI50 [17]: 7.89 µM (inactive)
- GI50 [18]: 28.2 µM (inactive)
- GI50 [19]: 23.7 µM (inactive)
- GI50 [20]: 23.1 µM (inactive)
- GI50 [21]: 22 µM (inactive)
- GI50 [22]: 44.1 µM (inactive)
- GI50 [23]: 23.2 µM (inactive)
- GI50 [24]: > 70.3 µM (inactive)
- GI50 [25]: 40.6 µM (inactive)
- GI50 [26]: 30.6 µM (inactive)
- GI50 [27]: 37.5 µM (inactive)
- GI50 [28]: 17.9 µM (inactive)
- GI50 [29]: 28.5 µM (inactive)
- GI50 [30]: 19.8 µM (inactive)
- GI50 [31]: 17.6 µM (inactive)
- GI50 [32]: 17.7 µM (inactive)
- GI50 [33]: 11.8 µM (inactive)
- GI50 [34]: 34.7 µM (inactive)
- GI50 [35]: 8.91 µM (inactive)
- GI50 [36]: 21.8 µM (inactive)
- GI50 [37]: 25.5 µM (inactive)
- GI50 [38]: 21.7 µM (inactive)
- GI50 [39]: 24.1 µM (inactive)
- GI50 [40]: 24.3 µM (inactive)
- GI50 [43]: 33.3 µM (inactive)
- GI50 [45]: 18.3 µM (inactive)
- GI50 [46]: 25.5 µM (inactive)
- GI50 [47]: 2.59 µM (inactive)
- GI50 [48]: 49.8 µM (inactive)
- GI50 [49]: 5.5 µM (inactive)
- GI50 [52]: 25 µM (inactive)
- GI50 [53]: 19.8 µM (inactive)
- GI50 [54]: 22.6 µM (inactive)
- GI50 [55]: 20.6 µM (inactive)
- GI50 [58]: 48.8 µM (inactive)
- GI50 [59]: 2.23 µM (inactive)
- GI50 [60]: 18.3 µM (inactive)
- GI50 [63]: 21.9 µM (inactive)
- GI50 [64]: 18 µM (inactive)
- GI50 [65]: 39.4 µM (inactive)
- GI50 [66]: 9.89 µM (inactive)
- GI50 [67]: 21.3 µM (inactive)
- GI50 [68]: 72.1 µM (inactive)
